In patent US20230151432A1, “KIF18A INHIBITORS FOR TREATMENT OF NEOPLASTIC DISEASES” (AMGEN INC., priority 2020, published 2023):

Legend:
[1] = test system: human breast cancer cell lines; assay: 4-day or 6-day cancer cell line growth assay screens (CellTiter-Glo, NCA); format: cell-based
Protocol: (§1) An analysis was carried out to identify cancer cell lines sensitivity profile to the KIF18A inhibitor Compound C9. In this analysis, a panel of different human breast and ovarian cancer cell lines (Table 2 of FIG. 4A and Table 3 of FIG. 4B), were used in either a 4-day or 6-day cancer cell line growth assay screen.
(§2) In the 4-day growth assay screen, cancer cell lines were treated in 96-well tissue culture plates at pre-optimized seeding density. Growth media conditions were determined by ChemPartners (Shanghai, China). After 24 hours, cells were treated with KIF18A inhibitor (Compound C9; final 10-point concentration range 2.0 μM to 0.0001 μM, 3-fold dilution) in a 4-day cell growth assay based on quantitation of ATP as an indicator of viable cells using CellTiter-GLO 2.0 readout (CTG, Promega). CTG assay was performed in duplicate for each cell line. Detection was performed using luminescence plate reader and expressed as relative luminescence units (RLU) based on POC (percentage of DMSO control). Raw data was provided to Amgen for curve-fitting analysis with 4-parameter equation (variable slope) using GraphPad Prism software (V7.0.4). […]
(§3) An expanded screen was performed using 6-day growth assay, cancer cell lines were treated in black 384-well tissue culture plates at 500-1500 cells per well. Growth media conditions were determined by Horizon Discovery (Cambridge, United Kingdom). After 24 hours, cells were treated with KIF18A inhibitor (Compound C9; final 11-point concentration range 2.0 μM to 0.0000339 μM, 3-fold dilution) in a 6-day cell growth assay based on quantitation of ATP as an indicator of viable cells using CellTiter-GLO 2.0 readout (Promega). Luminescence was detected using Envision plate reader (Perkin Elmer) and expressed as relative luminescence units (RLU) based on POC (percentage of control). […]
(§4) In Tables 2 and 3, “?” means that there were differences in sensitivity calls between the first screen and the second screen, and “ND” means not determined. […]

[2] = test system: human ovarian cancer cell lines; assay: as above; format: cell-based; settings: nine TP53 wild-type ovarian cancer cell lines
Protocol: as §1, §2, §3, §4

CAL-51 tumors = assay: CAL-51 Tumor Xenograft Efficacy Study (IP); format: in vivo, mouse; settings: 100 mg/kg IP once daily for 18 consecutive days
Protocol: Tumor volume and body weight assessment performed as described above. After the final dose on day 36, plasma pharmacokinetic analysis was performed as described above. All data analysis was performed as described above.

[3] = test system: human foreskin fibroblast (hFSF) cells; assay: BrdU incorporation assay in normal cells; format: cell-based; settings: 48 hours
Protocol: (§5) The effect KIF18A inhibitor treatment has on proliferation of normal somatic cells (e.g., not neoplastic cells) was tested by assaying proliferation of human bone marrow mononuclear cells (HBMNCs), primary human foreskin fibroblast cells (hFSF) and human mammary epithelial cells via a 5-bromo-2′-deoxyuridine (BrdU) incorporation assay in which BrdU, an analog of the nucleoside thymidine, is used to identify proliferating cells (Payton et. al., Molecular Cancer Therapeutics, 17(12):2575-85 (2018)). Cells were analyzed on BD LSRFortessa flow cytometer using BD FACSDiva software (BD Biosciences), and post-acquisition data analysis was performed using FSC-Express software (De Novo). The percentage of BrdU positive gated events on the stacked DNA content histograms were reported.

[4] = test system: human mammary epithelial cells (HMEC); assay: BrdU incorporation assay in normal cells; format: cell-based; settings: 48 hours
Protocol: as §5

Structure (SMILES) | sensitivity to KIF18A inhibitor ([1]; luminal A or luminal B breast cancer cell lines) | sensitivity to KIF18A inhibitor ([1]; nine TP53 wild-type breast cancer cell lines incl. CAL-51, DU4475) | sensitivity to KIF18A inhibitor [2] | effect on tumor growth relative to vehicle control (CAL-51 tumors) | BrdU incorporation relative to DMSO treated cells [3] | BrdU incorporation relative to DMSO treated cells [4]
CC(C)(C)NS(=O)(=O)c1cccc(NC(=O)c2ccc(S(=O)(=O)NC(C)(C)C)cc2N2CCC3(CC2)CC3)c1 [Compound C9, 4-(N-(tert-butyl)sulfamoyl)-N-(3-(N-(tert-butyl)sulfamoyl)phenyl)-2-(6-azaspiro[2.5]octan-6-yl)benzamide] | None of the luminal A or luminal B breast cancer cell lines were sensitive | None of the nine TP53 wild-type breast cancer cell lines were sensitive | None of the nine TP53 wild-type ovarian cancer cell lines were sensitive | no observable effect | – | –
CC(C)(CO)Nc1ccc(C(=O)Nc2cccc(S(=O)(=O)C3CCCC3)c2)c(N2CCC3(CC2)CC3)n1 [Compound C11, N-(3-(cyclopentylsulfonyl)phenyl)-6-((1-hydroxy-2-methylpropan-2-yl)amino)-2-(6-azaspiro[2.5]octan-6-yl)nicotinamide] | – | – | – | – | not impacted at concentrations <10 μM | not impacted at concentrations <10 μM
